Experimental data taken from patent US6569805B1, “Herbicidal compositions” (Aventis CropScience GmbH, priority 1999, dated 2003).
Several values for one entry are separate records, joined by “and”; a condition that tells them apart may be missing. Identical values can stand only once.

Tests used:
Format in all cases: in vivo
Cyperus esculentus = experiment: Greenhouse test under paddy rice conditions, visual scoring about 3 weeks after application (Example 4); details: herbicide 0.004 kg/ha without vegetable oil
Protocol: (§1) Rice, and Cyperus esculentus as typical harmful plant, were grown in a greenhouse under paddy rice conditions (flooding level of the water 2-3 cm) in sealed plastic pots and sprayed with an active substance preparation at an application rate of (converted) 600 l/ha. The test plants were then placed in the greenhouse under optimal growth conditions and kept like this over the entire test period. Approximately 3 weeks after the application, they were evaluated by means of visually scoring the damage to the plants in comparison with the untreated control, using the following scheme: 100%=total destruction, 0%=no action. The test results are shown in the table hereinbelow, the action of the herbicide/safener combination and of the vegetable oil when used separately being stated in brackets: […]

Rice = experiment: as above; details: crop plant, herbicide 0.004 kg/ha without vegetable oil
Protocol: as §1

Echinochloa crus galli = experiment: Greenhouse pot test, post-emergence spray, damage evaluated visually 2-3 weeks after treatment (Example 3); details: herbicide 0.015 kg/ha without vegetable oil
Protocol: (§2) Seeds or rhizome pieces of monocotyledonous and dicotyledonous harmful plants and useful plants were placed in sandy loam in pots of diameter 9 to 13 cm and covered with soil. The pots were kept in a greenhouse under optimal conditions. In the two- to three-leaf stage, i.e. approximately three weeks after cultivation has begun, the test plants were treated with the herbicides and vegetable oil in the form of aqueous dispersions or suspensions or emulsions and the green parts of the plant were sprayed with various dosage rates at an application rate of (converted) 300 l of water/ha. To grow the plants further, the pots were kept in the greenhouse under optimal conditions. The damage to the useful plants and harmful plants was evaluated visually 2-3 weeks after the treatment using the following scheme: 100%=total destruction, 0%=no action. The test results are shown in the table hereinbelow, the action of the herbicide/safener combination and of the vegetable oil when used separately being stated in brackets: […]

Chenopodium album = experiment: as above; details: herbicide 0.015 kg/ha without vegetable oil
Protocol: as §2

Sorghum halepense = experiment: as above; details: herbicide 0.015 kg/ha without vegetable oil
Protocol: as §2

CCOc1ccccc1OS(=O)(=O)NC(=O)Nc1nc(OC)cc(OC)n1 [A13, 1-(4,6-dimethoxypyrimidin-2-yl)-3-(2-ethoxyphenoxysulfonyl)urea]
CYPES Action (%), herbicide used separately (first value in brackets) (Cyperus esculentus): 35% | Rice Action (%), herbicide used separately (first value in brackets) (Rice): 0 (0 + 0) %

COc1cc(OC)nc(NC(=O)NS(=O)(=O)c2ncccc2C(=O)N(C)C)n1 [V1, Nicosulfuron]
ECHCG Action (%), herbicide used separately (first value in brackets) (Echinochloa crus galli): 0 (0 + 0) % and 0% | CHEAL Action (%), herbicide used separately (first value in brackets) (Chenopodium album): (0 + 0) % | SORHA Action (%), herbicide used separately (first value in brackets) (Sorghum halepense): (0 + 0) %
